ChEMBL document CHEMBL1909046, “DrugMatrix in vitro pharmacology data”
pIC50, pKi: −log10 of the molar value.

Key:
[1] = target: Aldo-keto reductase family 1 member B1 (Rattus norvegicus, UniProt P07943); format: tissue-based, Lens of camera-type eye;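 also: inhibition of aldose reductase enzyme activity, measured with DL-glyceraldehyde as the substrate; in other assays of this panel Not Active means under 50% inhibition at 10 µM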
[2] = target: Epidermal growth factor receptor (Homo sapiens, UniProt P00533); assay: DRUGMATRIX: Protein Tyrosine Kinase, EGF Receptor enzyme inhibition (substrate: Poly(Glu:Tyr)); format: cell-based, Insect cells; details: Not Active = under 50% inhibition at 10 µM; for pIC50: read-out: IC50; for IC50: insect cells
Cytochrome P450 2E1 = Cytochrome P450 2E1 (Homo sapiens, UniProt P05181); details: bti-tn-5b1-4; also: in other assays of this panel Not Active means under 50% inhibition at 10 µM
Adenosine receptor A2a = Adenosine receptor A2a (Homo sapiens, UniProt P29274); assay: DRUGMATRIX: Adenosine A2A radioligand binding (ligand: […]); format: cell membranes, HEK293, Membrane; details: hek293; Not Active = under 50% inhibition at 10 µM
Thromboxane-A synthase = target: T1, Thromboxane-A synthase (Homo sapiens, UniProt P24557); assay: biochemical; format: tissue-based, Platelet; details: for IC50: platelet; for pIC50: read-out: IC50;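 as to all read-outs here: enzyme inhibition assay with PGH2 supplied as substrate; in other assays of this panel Not Active means under 50% inhibition at 10 µM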
T1 sequence (P24557 whole entry): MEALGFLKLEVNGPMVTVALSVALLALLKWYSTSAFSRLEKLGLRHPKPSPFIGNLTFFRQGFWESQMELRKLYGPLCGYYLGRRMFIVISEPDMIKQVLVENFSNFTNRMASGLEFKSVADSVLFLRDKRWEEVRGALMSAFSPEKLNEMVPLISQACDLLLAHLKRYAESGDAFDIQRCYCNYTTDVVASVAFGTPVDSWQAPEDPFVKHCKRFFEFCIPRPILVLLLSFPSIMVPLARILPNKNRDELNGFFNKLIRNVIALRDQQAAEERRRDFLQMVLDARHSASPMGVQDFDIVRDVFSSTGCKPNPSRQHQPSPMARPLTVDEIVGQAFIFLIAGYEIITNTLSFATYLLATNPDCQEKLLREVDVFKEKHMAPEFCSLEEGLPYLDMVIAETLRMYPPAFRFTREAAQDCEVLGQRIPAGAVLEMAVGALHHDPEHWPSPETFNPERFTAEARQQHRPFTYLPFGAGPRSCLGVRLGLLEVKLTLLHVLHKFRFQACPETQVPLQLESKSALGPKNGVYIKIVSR

Cannabinoid receptor 1 = Cannabinoid receptor 1 (Homo sapiens, UniProt P21554); format: cell membranes, Membrane; details: chem-1; also: in other assays of this panel Not Active means under 50% inhibition at 10 µM
Calcitonin receptor = target: T2, Calcitonin receptor (Homo sapiens, UniProt P30988); format: cell membranes, Membrane; details: t47d; also: in other assays of this panel Not Active means under 50% inhibition at 10 µM
T2 sequence (P30988 whole entry): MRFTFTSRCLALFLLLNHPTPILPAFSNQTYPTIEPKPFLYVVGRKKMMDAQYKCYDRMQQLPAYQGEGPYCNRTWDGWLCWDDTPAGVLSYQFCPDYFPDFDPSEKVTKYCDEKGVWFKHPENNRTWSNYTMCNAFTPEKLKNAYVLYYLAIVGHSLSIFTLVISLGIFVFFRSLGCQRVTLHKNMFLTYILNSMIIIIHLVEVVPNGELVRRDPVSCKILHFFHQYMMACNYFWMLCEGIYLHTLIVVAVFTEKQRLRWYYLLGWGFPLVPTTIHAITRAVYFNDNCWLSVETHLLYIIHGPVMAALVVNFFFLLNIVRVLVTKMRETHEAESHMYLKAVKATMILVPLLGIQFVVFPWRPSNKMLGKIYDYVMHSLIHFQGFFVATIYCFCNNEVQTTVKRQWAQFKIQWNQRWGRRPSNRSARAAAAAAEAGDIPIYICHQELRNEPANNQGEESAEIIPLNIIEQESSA

[3] = target: T3, Amine oxidase [flavin-containing] A (Homo sapiens, UniProt P21397); assay: DRUGMATRIX: Monoamine Oxidase MAO-A enzyme inhibition (substrate: Kynuramine); parameters: species or system BTI-TN-5B1-4; details: bti-tn-5b1-4; Not Active = under 50% inhibition at 10 µM
T3 sequence (P21397 whole entry): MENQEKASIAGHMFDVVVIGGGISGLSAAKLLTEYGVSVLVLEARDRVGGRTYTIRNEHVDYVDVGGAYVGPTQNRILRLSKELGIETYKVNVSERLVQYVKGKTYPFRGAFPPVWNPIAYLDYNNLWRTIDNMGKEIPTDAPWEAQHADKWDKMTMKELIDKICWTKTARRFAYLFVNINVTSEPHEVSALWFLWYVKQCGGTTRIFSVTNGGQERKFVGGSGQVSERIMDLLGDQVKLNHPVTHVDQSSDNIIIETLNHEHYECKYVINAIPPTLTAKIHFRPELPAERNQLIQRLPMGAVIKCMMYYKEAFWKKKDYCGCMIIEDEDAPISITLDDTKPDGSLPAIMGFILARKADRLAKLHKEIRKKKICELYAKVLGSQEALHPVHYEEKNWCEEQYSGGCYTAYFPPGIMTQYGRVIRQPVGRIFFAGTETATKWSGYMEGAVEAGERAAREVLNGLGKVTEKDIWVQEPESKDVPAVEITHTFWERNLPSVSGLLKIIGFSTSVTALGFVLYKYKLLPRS

[4] = target: T4, Cholecystokinin receptor type A (Homo sapiens, UniProt P32238); format: cell membranes, Membrane; details: 1321-n1; also: in other assays of this panel Not Active means under 50% inhibition at 10 µM
T4 sequence (P32238 whole entry): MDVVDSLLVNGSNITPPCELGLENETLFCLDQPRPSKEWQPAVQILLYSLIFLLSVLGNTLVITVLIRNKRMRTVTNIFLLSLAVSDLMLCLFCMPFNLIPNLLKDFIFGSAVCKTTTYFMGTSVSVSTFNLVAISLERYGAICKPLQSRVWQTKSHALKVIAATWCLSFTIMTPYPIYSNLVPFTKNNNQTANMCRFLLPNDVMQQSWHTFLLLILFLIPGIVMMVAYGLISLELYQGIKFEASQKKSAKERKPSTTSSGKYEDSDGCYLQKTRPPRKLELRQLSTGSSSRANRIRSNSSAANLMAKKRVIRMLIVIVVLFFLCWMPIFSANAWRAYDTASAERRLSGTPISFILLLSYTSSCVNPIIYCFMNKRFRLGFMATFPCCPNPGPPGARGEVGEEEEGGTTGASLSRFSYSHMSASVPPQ

Insulin receptor = Insulin receptor (Rattus norvegicus, UniProt P15127); format: cell membranes, Wistar, Liver, Membrane; also: in other assays of this panel Not Active means under 50% inhibition at 10 µM
[5] = target: 5-hydroxytryptamine receptor 6 (Homo sapiens, UniProt P50406); format: cell membranes, HeLa, Membrane; details: for pIC50: read-out: IC50; for pKi: read-out: Ki; for IC50: hela
D(3) dopamine receptor = D(3) dopamine receptor (Homo sapiens, UniProt P35462); assay: DRUGMATRIX: Dopamine D3 radioligand binding (ligand: [3H] Spiperone); format: cell membranes, CHO, Membrane; details: for IC50: cho
[6] = DRUGMATRIX: Sodium/nucleoside co-transporter radioligand binding (ligand: nitrobenzylthioinosine); format: cell membranes, Cavia porcellus, Dunkin-Hartley, Cerebral cortex, Membrane; details: Not Active = under 50% inhibition at 10 µM
[7] = DRUGMATRIX: Tumor Necrosis Factor (TNF), Non-Selective radioligand binding (ligand: [125I] TNF-alpha); format: cell membranes, Membrane; details: u-937; Not Active = under 50% inhibition at 10 µM
[8] = DRUGMATRIX: Sigma2 radioligand binding (ligand: [3H] Ifenprodil); format: cell membranes, Rattus norvegicus, Wistar, Brain, Membrane; details: Not Active = under 50% inhibition at 10 µM

Chain of Cannabinoid receptor 1 (P21554 whole entry): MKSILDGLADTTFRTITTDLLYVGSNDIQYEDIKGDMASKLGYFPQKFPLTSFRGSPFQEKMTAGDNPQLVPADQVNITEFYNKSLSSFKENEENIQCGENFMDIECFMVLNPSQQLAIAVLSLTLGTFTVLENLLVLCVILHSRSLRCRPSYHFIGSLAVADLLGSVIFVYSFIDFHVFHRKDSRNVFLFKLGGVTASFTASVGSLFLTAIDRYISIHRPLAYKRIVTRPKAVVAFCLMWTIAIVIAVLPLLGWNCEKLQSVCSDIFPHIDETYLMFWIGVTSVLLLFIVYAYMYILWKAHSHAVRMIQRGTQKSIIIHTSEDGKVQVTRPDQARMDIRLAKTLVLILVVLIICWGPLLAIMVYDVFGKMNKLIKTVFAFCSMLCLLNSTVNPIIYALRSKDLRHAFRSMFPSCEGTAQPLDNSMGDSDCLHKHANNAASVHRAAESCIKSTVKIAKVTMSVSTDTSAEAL
Chain of D(3) dopamine receptor (P35462 whole entry): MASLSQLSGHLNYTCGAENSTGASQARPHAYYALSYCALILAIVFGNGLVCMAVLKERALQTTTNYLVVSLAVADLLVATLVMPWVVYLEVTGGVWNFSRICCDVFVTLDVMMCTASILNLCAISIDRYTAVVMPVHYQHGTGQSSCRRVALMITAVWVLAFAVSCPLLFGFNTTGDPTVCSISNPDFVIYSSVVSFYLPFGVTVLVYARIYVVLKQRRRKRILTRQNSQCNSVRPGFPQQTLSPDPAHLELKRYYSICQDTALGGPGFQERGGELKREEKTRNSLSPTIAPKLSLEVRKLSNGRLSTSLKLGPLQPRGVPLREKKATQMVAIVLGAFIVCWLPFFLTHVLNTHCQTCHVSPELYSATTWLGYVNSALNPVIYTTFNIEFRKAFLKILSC
Chain of 5-hydroxytryptamine receptor 6 (P50406 whole entry): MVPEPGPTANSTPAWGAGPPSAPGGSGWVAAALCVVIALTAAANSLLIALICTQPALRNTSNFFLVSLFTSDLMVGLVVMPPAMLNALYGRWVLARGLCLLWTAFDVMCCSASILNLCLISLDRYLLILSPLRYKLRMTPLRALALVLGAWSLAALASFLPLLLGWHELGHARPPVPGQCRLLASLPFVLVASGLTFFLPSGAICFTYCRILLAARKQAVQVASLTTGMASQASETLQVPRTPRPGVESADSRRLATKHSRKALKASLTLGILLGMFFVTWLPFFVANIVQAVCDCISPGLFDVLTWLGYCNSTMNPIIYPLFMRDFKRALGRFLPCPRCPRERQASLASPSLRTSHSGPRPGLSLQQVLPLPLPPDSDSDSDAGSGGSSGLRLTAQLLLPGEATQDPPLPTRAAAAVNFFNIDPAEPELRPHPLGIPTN
Chain of Insulin receptor (P15127 27-759 limits assumed): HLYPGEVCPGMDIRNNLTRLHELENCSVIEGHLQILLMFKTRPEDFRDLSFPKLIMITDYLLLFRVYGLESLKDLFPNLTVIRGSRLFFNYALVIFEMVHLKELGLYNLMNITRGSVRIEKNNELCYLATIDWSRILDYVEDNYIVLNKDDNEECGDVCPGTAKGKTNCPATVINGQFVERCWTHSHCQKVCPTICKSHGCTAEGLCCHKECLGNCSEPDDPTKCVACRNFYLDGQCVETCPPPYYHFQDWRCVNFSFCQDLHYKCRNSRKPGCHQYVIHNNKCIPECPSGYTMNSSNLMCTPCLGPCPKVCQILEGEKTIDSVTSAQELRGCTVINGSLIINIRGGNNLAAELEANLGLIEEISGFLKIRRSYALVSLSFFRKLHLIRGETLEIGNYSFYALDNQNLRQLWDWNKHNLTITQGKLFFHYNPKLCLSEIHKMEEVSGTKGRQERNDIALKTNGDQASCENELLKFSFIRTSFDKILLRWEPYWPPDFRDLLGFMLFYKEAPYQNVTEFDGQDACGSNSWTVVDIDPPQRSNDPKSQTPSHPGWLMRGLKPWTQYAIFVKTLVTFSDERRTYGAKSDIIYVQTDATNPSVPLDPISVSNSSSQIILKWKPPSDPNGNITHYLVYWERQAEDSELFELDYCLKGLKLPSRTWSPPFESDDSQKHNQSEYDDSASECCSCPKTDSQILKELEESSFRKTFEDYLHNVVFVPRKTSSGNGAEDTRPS
Chain of Insulin receptor (P15127 764-1383 limits assumed): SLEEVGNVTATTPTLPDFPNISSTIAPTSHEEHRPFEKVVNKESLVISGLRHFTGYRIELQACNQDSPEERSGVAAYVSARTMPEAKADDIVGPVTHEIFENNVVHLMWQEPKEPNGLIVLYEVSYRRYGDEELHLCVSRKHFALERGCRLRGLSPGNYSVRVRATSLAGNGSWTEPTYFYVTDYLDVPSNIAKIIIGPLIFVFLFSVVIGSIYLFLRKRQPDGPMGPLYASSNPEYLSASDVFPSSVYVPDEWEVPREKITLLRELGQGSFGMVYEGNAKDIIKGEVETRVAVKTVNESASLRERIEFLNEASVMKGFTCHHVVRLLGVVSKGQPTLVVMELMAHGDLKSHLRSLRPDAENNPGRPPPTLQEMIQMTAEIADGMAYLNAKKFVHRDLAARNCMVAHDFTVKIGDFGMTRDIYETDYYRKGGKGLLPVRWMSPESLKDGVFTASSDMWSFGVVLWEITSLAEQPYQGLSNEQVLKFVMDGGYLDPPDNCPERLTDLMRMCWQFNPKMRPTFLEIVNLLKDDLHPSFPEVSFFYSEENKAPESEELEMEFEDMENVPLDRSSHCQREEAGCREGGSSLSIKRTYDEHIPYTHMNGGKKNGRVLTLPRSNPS
Chain of Epidermal growth factor receptor (P00533 whole entry): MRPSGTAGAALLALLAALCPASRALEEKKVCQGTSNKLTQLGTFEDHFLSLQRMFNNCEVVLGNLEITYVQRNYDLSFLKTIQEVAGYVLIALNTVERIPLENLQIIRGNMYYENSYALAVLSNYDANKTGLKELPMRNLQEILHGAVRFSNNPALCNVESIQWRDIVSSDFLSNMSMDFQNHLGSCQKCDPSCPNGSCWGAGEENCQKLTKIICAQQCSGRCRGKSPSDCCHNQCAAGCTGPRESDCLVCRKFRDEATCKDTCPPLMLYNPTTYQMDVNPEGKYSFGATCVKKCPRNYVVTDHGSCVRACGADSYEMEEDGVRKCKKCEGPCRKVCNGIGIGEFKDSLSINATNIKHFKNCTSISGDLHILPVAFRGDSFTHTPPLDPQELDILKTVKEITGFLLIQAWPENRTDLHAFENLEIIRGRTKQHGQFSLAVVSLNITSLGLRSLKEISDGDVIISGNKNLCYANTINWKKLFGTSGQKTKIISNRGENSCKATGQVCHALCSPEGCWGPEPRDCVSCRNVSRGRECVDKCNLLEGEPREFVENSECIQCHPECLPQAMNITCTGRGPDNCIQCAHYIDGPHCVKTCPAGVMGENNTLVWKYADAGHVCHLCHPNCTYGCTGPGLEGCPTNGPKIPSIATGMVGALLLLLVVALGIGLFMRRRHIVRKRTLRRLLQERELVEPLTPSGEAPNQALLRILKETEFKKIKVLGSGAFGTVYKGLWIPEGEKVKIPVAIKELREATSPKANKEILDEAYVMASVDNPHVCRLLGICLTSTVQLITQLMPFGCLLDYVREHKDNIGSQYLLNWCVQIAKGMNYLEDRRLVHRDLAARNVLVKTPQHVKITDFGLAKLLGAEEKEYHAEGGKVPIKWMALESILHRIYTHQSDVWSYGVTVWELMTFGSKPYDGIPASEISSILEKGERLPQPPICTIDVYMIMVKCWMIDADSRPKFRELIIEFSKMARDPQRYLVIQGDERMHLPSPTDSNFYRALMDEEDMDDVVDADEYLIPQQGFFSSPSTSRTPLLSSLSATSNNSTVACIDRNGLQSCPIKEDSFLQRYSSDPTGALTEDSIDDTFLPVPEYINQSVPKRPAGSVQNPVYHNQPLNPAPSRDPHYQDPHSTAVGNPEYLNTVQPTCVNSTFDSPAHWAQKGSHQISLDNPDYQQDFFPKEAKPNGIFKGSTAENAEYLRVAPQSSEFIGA
Chain of Adenosine receptor A2a (P29274 whole entry): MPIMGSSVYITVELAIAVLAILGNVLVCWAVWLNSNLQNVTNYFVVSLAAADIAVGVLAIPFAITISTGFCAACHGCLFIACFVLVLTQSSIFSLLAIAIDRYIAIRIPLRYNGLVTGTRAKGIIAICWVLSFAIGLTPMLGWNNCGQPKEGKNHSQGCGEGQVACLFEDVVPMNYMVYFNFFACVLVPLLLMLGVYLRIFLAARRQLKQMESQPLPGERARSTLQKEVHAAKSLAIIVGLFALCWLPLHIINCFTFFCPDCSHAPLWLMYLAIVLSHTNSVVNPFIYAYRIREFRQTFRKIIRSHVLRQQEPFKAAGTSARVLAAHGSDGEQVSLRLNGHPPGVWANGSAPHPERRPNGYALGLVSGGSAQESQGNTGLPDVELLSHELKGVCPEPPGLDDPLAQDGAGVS
Chain of Cytochrome P450 2E1 (P05181 whole entry): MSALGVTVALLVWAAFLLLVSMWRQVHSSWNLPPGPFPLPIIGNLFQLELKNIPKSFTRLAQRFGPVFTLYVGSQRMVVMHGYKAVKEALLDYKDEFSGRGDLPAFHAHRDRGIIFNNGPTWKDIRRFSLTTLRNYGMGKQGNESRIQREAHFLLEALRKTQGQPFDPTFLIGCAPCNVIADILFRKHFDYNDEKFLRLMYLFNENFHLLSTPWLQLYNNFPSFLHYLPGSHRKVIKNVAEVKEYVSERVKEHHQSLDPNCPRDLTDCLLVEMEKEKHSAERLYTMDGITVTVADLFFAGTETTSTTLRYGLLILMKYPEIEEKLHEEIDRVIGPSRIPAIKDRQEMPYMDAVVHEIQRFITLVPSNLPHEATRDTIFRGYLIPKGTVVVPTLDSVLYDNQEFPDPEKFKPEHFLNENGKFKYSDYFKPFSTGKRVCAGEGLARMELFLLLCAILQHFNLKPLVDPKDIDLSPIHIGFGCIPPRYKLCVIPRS

COc1ccc(CCN2CCC(Nc3nc4ccccc4n3Cc3ccc(F)cc3)CC2)cc1 [ASTEMIZOLE]
IC50 [1]: Not Active
pIC50 [2]: 5.22
IC50 (Cytochrome P450 2E1): Not Active
Ki (Cytochrome P450 2E1): Not Active
IC50 (Adenosine receptor A2a): Not Active
IC50 (Thromboxane-A synthase): Not Active
IC50 (Cannabinoid receptor 1): Not Active
IC50 (Calcitonin receptor): Not Active
IC50 [3]: Not Active
IC50 [4]: Not Active
IC50 (Insulin receptor): Not Active

Clc1ccccc1C(c1ccccc1)(c1ccccc1)n1ccnc1 [CLOTRIMAZOLE]
IC50 [1]: Not Active
pIC50 [5]: 4.90
pKi [5]: 5.23
pIC50 [2]: 4.16
IC50 (Cytochrome P450 2E1): Not Active
Ki (Cytochrome P450 2E1): Not Active
pIC50 (D(3) dopamine receptor; read-out: IC50): 5.58
pKi (D(3) dopamine receptor; read-out: Ki): 6.05
pIC50 (Thromboxane-A synthase): 7.85
IC50 (Cannabinoid receptor 1): Not Active
IC50 (Calcitonin receptor): Not Active
IC50 [3]: Not Active
IC50 [4]: Not Active
IC50 (Insulin receptor): Not Active

O=C(CCCN1CCC(O)(c2ccc(Cl)cc2)CC1)c1ccc(F)cc1 [HALOPERIDOL]
IC50 [1]: Not Active
IC50 [5]: Not Active
IC50 [2]: Not Active
IC50 (Cytochrome P450 2E1): Not Active
Ki (Cytochrome P450 2E1): Not Active
IC50 (Adenosine receptor A2a): Not Active
IC50 (Thromboxane-A synthase): Not Active
IC50 (Cannabinoid receptor 1): Not Active
IC50 (Calcitonin receptor): Not Active
IC50 [3]: Not Active
IC50 [4]: Not Active
IC50 (Insulin receptor): Not Active

CN1CCN2c3ccccc3Cc3ccccc3C2C1 (stereo unspecified) [MIANSERIN]
IC50 [1]: Not Active
IC50 [2]: Not Active
IC50 (Cytochrome P450 2E1): Not Active
Ki (Cytochrome P450 2E1): Not Active
IC50 (Adenosine receptor A2a): Not Active
IC50 (D(3) dopamine receptor): Not Active
IC50 (Thromboxane-A synthase): Not Active
IC50 (Cannabinoid receptor 1): Not Active
IC50 (Calcitonin receptor): Not Active
IC50 [3]: Not Active
IC50 [4]: Not Active
IC50 (Insulin receptor): Not Active

O=C1c2c(O)ccc(O)c2C(=O)c2c(NCCNCCO)ccc(NCCNCCO)c21 [MITOXANTRONE]
IC50 [1]: Not Active
IC50 [5]: Not Active
pIC50 [2]: 5.27
IC50 [6]: Not Active
Ki [6]: Not Active
IC50 (Adenosine receptor A2a): Not Active
IC50 (D(3) dopamine receptor): Not Active
IC50 (Thromboxane-A synthase): Not Active
IC50 [7]: Not Active
Ki [7]: Not Active
IC50 [8]: Not Active
Ki [8]: Not Active
IC50 (Cannabinoid receptor 1): Not Active
IC50 (Calcitonin receptor): Not Active
IC50 [3]: Not Active
IC50 [4]: Not Active
IC50 (Insulin receptor): Not Active

CC(C)(O)c1ccccc1CC[C@@H](SCC1(CC(=O)O)CC1)c1cccc(/C=C/c2ccc3ccc(Cl)cc3n2)c1 [MONTELUKAST]
IC50 [1]: Not Active
IC50 [5]: Not Active
pIC50 [2]: 5.50
IC50 (Cytochrome P450 2E1): Not Active
Ki (Cytochrome P450 2E1): Not Active
IC50 (Adenosine receptor A2a): Not Active
pIC50 (Thromboxane-A synthase): 5.82
IC50 (Cannabinoid receptor 1): Not Active
IC50 (Calcitonin receptor): Not Active
IC50 [3]: Not Active
IC50 [4]: Not Active
IC50 (Insulin receptor): Not Active

COC(=O)C1=C(C)NC(C)=C(C(=O)OC)C1c1ccccc1[N+](=O)[O-] [NIFEDIPINE]
IC50 [1]: Not Active
IC50 [5]: Not Active
IC50 [2]: Not Active
pIC50 ([6]; read-out: IC50): 4.62
pKi ([6]; read-out: Ki): 5.09
IC50 (Adenosine receptor A2a): Not Active
IC50 (D(3) dopamine receptor): Not Active
pIC50 (Thromboxane-A synthase): 4.73
IC50 [7]: Not Active
Ki [7]: Not Active
IC50 [8]: Not Active
Ki [8]: Not Active
IC50 (Cannabinoid receptor 1): Not Active
IC50 (Calcitonin receptor): Not Active
IC50 [3]: Not Active
IC50 [4]: Not Active
IC50 (Insulin receptor): Not Active

CN[C@@H]1[C@@H](O)[C@@H](O[C@@H]2[C@@H](O)[C@H](O[C@H]3OC(CN)=CC[C@H]3N)[C@@H](N)C[C@H]2N)OC[C@]1(C)O [SISOMICIN]
IC50 [1]: Not Active
IC50 [5]: Not Active
IC50 [2]: Not Active
IC50 [6]: Not Active
Ki [6]: Not Active
IC50 (Adenosine receptor A2a): Not Active
IC50 (D(3) dopamine receptor): Not Active
IC50 (Thromboxane-A synthase): Not Active
IC50 [7]: Not Active
Ki [7]: Not Active
IC50 [8]: Not Active
Ki [8]: Not Active
IC50 (Cannabinoid receptor 1): Not Active
IC50 (Calcitonin receptor): Not Active
IC50 [3]: Not Active
IC50 [4]: Not Active
IC50 (Insulin receptor): Not Active

CSc1ccc2c(c1)N(CCC1CCCCN1C)c1ccccc1S2 (stereo unspecified) [THIORIDAZINE]
IC50 [1]: Not Active
pIC50 [5]: 7.15
pKi [5]: 7.48
pIC50 [2]: 5.53
IC50 (Cytochrome P450 2E1): Not Active
Ki (Cytochrome P450 2E1): Not Active
IC50 (Adenosine receptor A2a): Not Active
IC50 (Thromboxane-A synthase): Not Active
IC50 (Cannabinoid receptor 1): Not Active
IC50 (Calcitonin receptor): Not Active
IC50 [3]: Not Active
IC50 [4]: Not Active
IC50 (Insulin receptor): Not Active

COC(=O)[C@@H]1[C@H]2C[C@H]3c4[nH]c5ccccc5c4CCN3C[C@@H]2CC[C@@H]1O [YOHIMBINE]
IC50 [1]: Not Active
IC50 [2]: Not Active
IC50 [6]: Not Active
Ki [6]: Not Active
IC50 (Adenosine receptor A2a): Not Active
IC50 (D(3) dopamine receptor): Not Active
IC50 (Thromboxane-A synthase): Not Active
IC50 [7]: Not Active
Ki [7]: Not Active
IC50 [8]: Not Active
Ki [8]: Not Active
IC50 (Cannabinoid receptor 1): Not Active
IC50 (Calcitonin receptor): Not Active
IC50 [3]: Not Active
IC50 [4]: Not Active
IC50 (Insulin receptor): Not Active
